{"source": "patent EP4717275A1", "about": "“ANTI-LUNG CANCER COMBINED DRUG AND USE THEREOF” (Gunagdong Yinzhu Pharmaceutical Technology Co., Ltd, priority 2023, dated 2024)", "key": {"[1]": {"system": "human lung cancer NCI-H1975 xenografts", "experiment": "Therapeutic effect in vivo on NCI-H1975 xenografts in nude mice", "parameters": "species or system BALB/c Nude mice", "settings": "PO; for Relative tumor proliferation rate(%) Day 21: %T/CRTV; for Tumor growth inhibition rate(%) Day 21: %TGITV from tumor volume vs control; for Tumor inhibition rate(%) Day 21: %TGITW from tumor weight vs control; for Tumor volume (mm^3,Mean±SEM) Day 21: QD×21, dose per group; for Relative tumor volume Day 21: RTV = Vt/V0, Mean ± SEM", "experimental": "BALB/c Nude mice, female, 8-10 weeks old, 18-20g. […] Table 2 Experimental design of therapeutic effect of the drugs in vivo […] NCI-H1975 cells were cultured in RPMI 1640 medium supplemented with 10% FBS and maintained in a 37°C, 5% CO2 humidified incubator. Log-phase NCI-H1975 cells were harvested, resuspended in RPMI 1640 basal medium containing 50% Matrigel, and adjusted to a concentration of 2 × 10^7 cells/mL. Under aseptic conditions, 0.1 mL of the cell suspension was injected subcutaneously into the right flank of mice at a concentration of 2 × 10^6 cells/0.1 mL/mouse. […] The grouping day was designated as Day 0, and administration commenced according to animal body weight. […] Animal body weight and tumor volume were measured twice weekly throughout the experiment. Tumor length and width were measured using a digital caliper, with tumor volume estimated from these measurements. After the final weighing on Day 21, remaining animals were euthanized with CO2. Tumors were weighed, photographed, and the experiment concluded. […] Tumor growth inhibition rate (%TGITV) is calculated as: […] Relative Tumor Volume (RTV) is calculated as Vt/V0, where V0 is the tumor volume at grouping and Vt is the tumor volume at each measurement. Relative Tumor Growth Rate (%T/CRTV) is calculated as TRTV/CRTV × 100%, where TRTV is the RTV of the treatment group and CRTV is the RTV of the negative control group. Tumor growth inhibition rate (%TGITW) is calculated as: ([…] × 100%, where TWc is the average tumor weight in the negative control group and TWT is the average tumor weight in the treatment group. […] Drug-related animal mortality exceeding 20% indicates severe toxicity at that dose. All experimental data in this study are expressed as Mean ± SEM. The evaluation of the combination index (CI) of drugs relies on the following equation: […]), wherein E(A+B) is the inhibition rate of combination drug, EA and EB is the inhibition rate of drug A and drug B respectively. E(A+B) in the equation represents 'measured synergistic effect' and (EA+EB-EA×EB) is 'expected synergistic effect'. CI=0.85-1.15 indicates a mere addition of the effect of two drugs, >1.15 indicates enhancement (or synergy), and <0.85 indicates antagonism. • Combination index of tumor growth inhibition: CAI, 40mg/kg + AZD9291, 1mg/kg: 1.27; […] CAI, 40mg/kg + AZD9291, 1mg/kg: 1.20; […]"}, "[2]": {"experiment": "Animal body weight, fatality and toxicity observation in the NCI-H2228 xenograft study", "format": "in vivo, BALB/c Nude mice", "settings": "dead/total animals at Day 21; NCI-H2228 study; PO, QD×21", "excerpt": "BALB/c Nude mice, female, 8-10 weeks old, 18-20g. The variation of the body weight is ±20% around average body weight. 80 mice were inoculated and 60 mice were grouped.\nThe grouping day was designated as Day 0, and administration commenced according to animal body weight.\nThe same as the therapeutic effect evaluation experiments for Examples 1-2 and Comparative Examples 1-3."}, "[3]": {"settings": "QD×21, listed as Comparative Example 2"}, "[4]": {"settings": "QD×21, listed as Comparative Example 3"}}}
{"smiles": "NC(=O)c1nnn(Cc2cc(Cl)c(C(=O)c3ccc(Cl)cc3)c(Cl)c2)c1N", "note": "[CAI, 5-Amino-1-[3,5-dichloro-4-(4-chlorobenzoyl chloride)benzyl]-1H-1,2,3-triazole-4-benzamide]", "values": [{"measurement": "Relative tumor proliferation rate(%) Day 21", "setting": "[1]; [3]", "value": 93.04, "unit": "%"}, {"measurement": "Relative tumor proliferation rate(%) Day 21", "setting": "[1]; [4]", "value": 93.23, "unit": "%"}, {"measurement": "Tumor growth inhibition rate(%) Day 21", "setting": "[1]; QD×21", "value": 12.99, "unit": "%"}, {"measurement": "Tumor growth inhibition rate(%) Day 21", "setting": "[1]; [4]", "value": 12.33, "unit": "%"}, {"measurement": "Tumor inhibition rate(%) Day 21", "setting": "[1]; [3]", "value": 15.76, "unit": "%"}, {"measurement": "Tumor inhibition rate(%) Day 21", "setting": "[1]; [4]", "value": 7.06, "unit": "%"}, {"measurement": "Tumor volume (mm^3,Mean±SEM) Day 21", "setting": "[1]; listed as Comparative Example 2", "value": "1536.24 ±222.57", "unit": "mm^3"}, {"measurement": "Tumor volume (mm^3,Mean±SEM) Day 21", "setting": "[1]; listed as Comparative Example 3", "value": "1547.91 ±221.67", "unit": "mm^3"}, {"measurement": "Tumor weight (g,Mean±SEM) Day 21", "setting": "[1]; [3]", "value": "1.384 ± 0.266", "unit": "g"}, {"measurement": "Tumor weight (g,Mean±SEM) Day 21", "setting": "[1]; [4]", "value": "1.527 ± 0.257", "unit": "g"}, {"measurement": "Relative tumor volume Day 21", "setting": "[1]; [3]", "value": "10.03 +1.27"}, {"measurement": "Relative tumor volume Day 21", "setting": "[1]; [4]", "value": "10.05 ±1.30"}, {"measurement": "Fatality", "setting": "[2]", "value": "0/10 (Day 21)"}]}
